From article PMC6253765, “Synthesis and Herbicidal Activities of Novel 4-(4-(5-methyl-3-arylisoxazol-4-yl)thiazol-2-yl)piperidyl Carboxamides and Thiocarboxamides” (Molecules, 2009)

Target: T1, D1 protease (CtpA) (Spinacia oleracea, UniProt Q36792)
T1 construct: native spinach CtpA protein purified from spinach thylakoid
T1 sequence (Q36792 147-539): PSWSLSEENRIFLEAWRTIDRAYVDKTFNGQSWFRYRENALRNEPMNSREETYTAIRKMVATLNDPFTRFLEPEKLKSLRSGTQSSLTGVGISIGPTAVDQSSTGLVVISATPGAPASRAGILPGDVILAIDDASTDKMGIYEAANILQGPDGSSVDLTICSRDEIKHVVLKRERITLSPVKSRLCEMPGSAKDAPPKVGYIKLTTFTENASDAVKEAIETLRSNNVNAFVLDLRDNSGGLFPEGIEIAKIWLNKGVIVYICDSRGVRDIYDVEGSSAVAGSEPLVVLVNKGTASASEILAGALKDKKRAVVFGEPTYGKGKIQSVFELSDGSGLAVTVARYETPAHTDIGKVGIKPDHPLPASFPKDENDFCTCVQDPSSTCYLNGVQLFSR
Experiment: HPLC assay of cleavage of S24 peptide substrate; Dixon plot
Format: biochemical

Ki: 1300 nM
SMILES: CCCCNC(=O)N1CCC(c2nc(-c3c(-c4ccccc4F)noc3C)cs2)CC1 [4m, N-butyl-4-(4-(3-(2-fluorophenyl)-5-methylisoxazol-4-yl)thiazol-2-yl)piperidine-1-carboxamide]
